Data published in US9079901B2, “Fused heterocyclic compounds as ion channel modulators” (Gilead Sciences, Inc., priority 2010, dated 2015).

Biological target: wild-type human cardiac sodium channel, hNav1.5 (late sodium current) in HEK293 cells (Homo sapiens, UniProt Q14524)
Assay: Late INa screening assay (automated whole-cell patch clamp, PatchXpress)
Type: cell-based
Conditions: HEK293, compound at 1 μM; late INa generated with 10 μM Tefluthrin (or 50 nM ATX II); HEK293 hNav1.5; read-out: Late INa 1 μM (percent block of late INa)
Outline: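 Percent block was derived from mean current 225–250 ms into a 250 ms depolarisation to −20 mV (holding −120 mV, every 10 s), normalised to the current left in Na-free solution. Whole-cell recordings came from HEK293 cells stably expressing α-subunit-only hNav1.5, at 24–27 °C. Late current was enhanced with 10 μM tefluthrin or 50 nM ATX II, then compound (typically 10 μM) was added three times over 7–8 min.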

Chain of wild-type human cardiac sodium channel, hNav1.5 (late sodium current) in HEK293 cells (Q14524 whole entry): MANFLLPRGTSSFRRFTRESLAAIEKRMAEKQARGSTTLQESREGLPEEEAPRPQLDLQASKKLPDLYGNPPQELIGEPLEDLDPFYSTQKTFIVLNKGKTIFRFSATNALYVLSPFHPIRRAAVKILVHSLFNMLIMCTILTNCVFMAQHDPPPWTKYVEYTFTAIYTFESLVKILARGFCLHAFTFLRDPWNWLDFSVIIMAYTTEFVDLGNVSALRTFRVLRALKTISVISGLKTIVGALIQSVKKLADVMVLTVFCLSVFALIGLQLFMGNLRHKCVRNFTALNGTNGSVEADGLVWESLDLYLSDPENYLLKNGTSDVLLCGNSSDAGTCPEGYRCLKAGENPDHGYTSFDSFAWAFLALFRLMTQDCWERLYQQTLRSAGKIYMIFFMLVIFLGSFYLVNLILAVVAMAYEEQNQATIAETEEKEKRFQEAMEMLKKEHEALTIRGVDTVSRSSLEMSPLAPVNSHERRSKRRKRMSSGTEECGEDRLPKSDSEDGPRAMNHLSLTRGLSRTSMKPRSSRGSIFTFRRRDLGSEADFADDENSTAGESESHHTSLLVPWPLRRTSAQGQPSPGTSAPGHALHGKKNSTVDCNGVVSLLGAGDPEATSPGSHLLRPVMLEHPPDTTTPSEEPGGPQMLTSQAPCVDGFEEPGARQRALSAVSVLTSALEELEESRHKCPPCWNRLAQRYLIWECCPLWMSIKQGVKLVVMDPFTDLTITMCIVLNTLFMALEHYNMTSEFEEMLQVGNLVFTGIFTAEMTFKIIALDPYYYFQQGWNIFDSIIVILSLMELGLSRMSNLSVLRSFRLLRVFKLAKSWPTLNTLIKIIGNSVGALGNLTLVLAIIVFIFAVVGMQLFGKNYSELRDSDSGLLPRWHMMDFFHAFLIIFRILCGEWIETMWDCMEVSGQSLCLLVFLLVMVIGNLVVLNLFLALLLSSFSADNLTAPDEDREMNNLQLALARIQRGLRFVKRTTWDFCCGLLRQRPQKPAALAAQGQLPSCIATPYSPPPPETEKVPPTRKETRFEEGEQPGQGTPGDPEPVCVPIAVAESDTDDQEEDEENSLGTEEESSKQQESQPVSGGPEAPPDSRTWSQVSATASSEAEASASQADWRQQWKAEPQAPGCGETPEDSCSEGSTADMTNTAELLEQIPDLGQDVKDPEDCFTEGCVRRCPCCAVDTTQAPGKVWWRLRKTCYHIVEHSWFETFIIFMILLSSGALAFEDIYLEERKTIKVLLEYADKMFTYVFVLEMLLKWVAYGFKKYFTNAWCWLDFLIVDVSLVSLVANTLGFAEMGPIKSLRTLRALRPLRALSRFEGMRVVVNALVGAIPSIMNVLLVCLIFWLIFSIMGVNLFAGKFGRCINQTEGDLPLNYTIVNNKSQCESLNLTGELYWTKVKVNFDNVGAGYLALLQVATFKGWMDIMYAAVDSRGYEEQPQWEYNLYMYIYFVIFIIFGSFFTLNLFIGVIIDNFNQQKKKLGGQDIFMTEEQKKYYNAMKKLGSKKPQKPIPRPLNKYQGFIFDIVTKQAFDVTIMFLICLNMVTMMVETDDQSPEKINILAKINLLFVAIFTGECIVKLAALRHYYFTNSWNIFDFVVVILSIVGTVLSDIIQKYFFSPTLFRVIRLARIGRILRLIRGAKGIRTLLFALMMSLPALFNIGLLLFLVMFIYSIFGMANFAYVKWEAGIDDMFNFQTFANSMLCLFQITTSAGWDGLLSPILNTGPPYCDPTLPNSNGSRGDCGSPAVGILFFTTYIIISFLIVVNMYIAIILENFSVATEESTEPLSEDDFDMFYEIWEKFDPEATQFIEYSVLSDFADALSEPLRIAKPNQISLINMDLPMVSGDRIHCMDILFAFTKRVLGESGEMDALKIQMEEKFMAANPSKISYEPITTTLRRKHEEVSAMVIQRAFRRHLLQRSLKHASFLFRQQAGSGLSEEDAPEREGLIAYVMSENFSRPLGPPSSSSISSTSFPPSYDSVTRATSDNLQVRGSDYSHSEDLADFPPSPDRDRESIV

Row | Structure (SMILES) | inhibition at 1 µM
1 | O=c1n(Cc2noc(COc3ncccn3)n2)nc2ccc(-c3ccc(OC(F)(F)F)cc3)cn12 [compound 162, 2-((5-((pyrimidin-2-yloxy)methyl)-1,2,4-oxadiazol-3-yl)methyl)-6-(4-(trifluoromethoxy)phenyl)-[1,2,4]triazolo[4,3-a]pyridin-3(2H)-one] | 18.5%
2 | Cn1cc(Cn2nc3ccc(-c4ccc(OC(F)(F)F)cc4)cn3c2=O)cn1 [compound 163, 2-((1-methyl-1H-pyrazol-4-yl)methyl)-6-(4-(trifluoromethoxy)phenyl)-[1,2,4]triazolo[4,3-a]pyridin-3(2H)-one] | 12%
3 | Cc1cc(Cn2nc3ccc(-c4ccc(OC(F)(F)F)cc4)cn3c2=O)on1 [compound 164, 2-((3-methylisoxazol-5-yl)methyl)-6-(4-(trifluoromethoxy)phenyl)-[1,2,4]triazolo[4,3-a]pyridin-3(2H)-one] | 16.9%
4 | Cn1ccc(Cn2nc3ccc(-c4ccc(OC(F)(F)F)cc4)cn3c2=O)n1 [compound 165, 2-((1-methyl-1H-pyrazol-3-yl)methyl)-6-(4-(trifluoromethoxy)phenyl)-[1,2,4]triazolo[4,3-a]pyridin-3(2H)-one] | 10.8%
5 | CCc1noc(Cn2nc3ccc(-c4ccc(OC(F)(F)F)cc4)cn3c2=O)n1 [compound 166, 2-((3-ethyl-1,2,4-oxadiazol-5-yl)methyl)-6-(4-(trifluoromethoxy)phenyl)-[1,2,4]triazolo[4,3-a]pyridin-3(2H)-one] | 24.4%
6 | CCc1noc(Cn2nc3ccc(-c4ccc(C(F)(F)F)cc4)cn3c2=O)n1 [compound 167, 2-((3-ethyl-1,2,4-oxadiazol-5-yl)methyl)-6-(4-(trifluoromethyl)phenyl)-[1,2,4]triazolo[4,3-a]pyridin-3(2H)-one] | 26.2%
7 | COCc1noc(Cn2nc3ccc(-c4ccc(C(F)(F)F)cc4)cn3c2=O)n1 [compound 168, 2-((3-(methoxymethyl)-1,2,4-oxadiazol-5-yl)methyl)-6-(4-(trifluoromethyl)phenyl)-[1,2,4]triazolo[4,3-a]pyridin-3(2H)-one] | 19.1%
8 | [2H]C([2H])([2H])c1noc(Cn2nc3ccc(-c4ccc(OC(F)(F)F)cc4)cn3c2=O)n1 [compound 169, 2-((3-trideuteromethyl-1,2,4-oxadiazol-5-yl)methyl)-6-(4-(trifluoromethoxy)phenyl)-[1,2,4]triazolo[4,3-a]pyridin-3(2H)-one] | 24.1%
9 | O=c1n(Cc2nnc(C3CC3)s2)nc2ccc(-c3ccc(OC(F)(F)F)cc3)cn12 [compound 170, 2-((5-cyclopropyl-1,3,4-thiadiazol-2-yl)methyl)-6-(4-(trifluoromethoxy)phenyl)-[1,2,4]triazolo[4,3-a]pyridin-3(2H)-one] | 18%
10 | O=c1[nH]nc2ccc(-c3ccc(C(F)(F)F)cc3)cn12 [compound 171, 6-(4-(trifluoromethyl)phenyl)-[1,2,4]triazolo[4,3-a]pyridin-3(2H)-one] | 19.6%
11 | Cc1cnc(Cn2nc3ccc(-c4ccc(C(F)(F)F)cc4)cn3c2=O)o1 [compound 172, 2-((5-methyloxazol-2-yl)methyl)-6-(4-(trifluoromethyl)phenyl)-[1,2,4]triazolo[4,3-a]pyridin-3(2H)-one] | 24.8%
12 | Cc1nc(Cn2nc3ccc(-c4ccc(C(F)(F)F)cc4)cn3c2=O)oc1C [compound 173, 2-((4,5-dimethyloxazol-2-yl)methyl)-6-(4-(trifluoromethyl)phenyl)-[1,2,4]triazolo[4,3-a]pyridin-3(2H)-one] | 22.2%
13 | O=c1n(CCOc2nccn3ccnc23)nc2ccc(-c3ccc(OC(F)(F)F)cc3)cn12 [compound 174, 2-(2-(imidazo[1,2-a]pyrazin-8-yloxy)ethyl)-6-(4-(trifluoromethoxy)phenyl)-[1,2,4]triazolo[4,3-a]pyridin-3(2H)-one] | 26.3%
14 | O=c1n(Cc2noc(COc3ccccn3)n2)nc2ccc(-c3ccc(OC(F)(F)F)cc3)cn12 [compound 175, 2-((5-((pyridin-2-yloxy)methyl)-1,2,4-oxadiazol-3-yl)methyl)-6-(4-(trifluoromethoxy)phenyl)-[1,2,4]triazolo[4,3-a]pyridin-3(2H)-one] | 28.9%
15 | CCOc1ccccc1OCc1nc(Cn2nc3ccc(-c4ccc(OC(F)(F)F)cc4)cn3c2=O)no1 [compound 176, 2-((5-((2-ethoxyphenoxy)methyl)-1,2,4-oxadiazol-3-yl)methyl)-6-(4-(trifluoromethoxy)phenyl)-[1,2,4]triazolo[4,3-a]pyridin-3(2H)-one] | 25.5%
16 | CC(C)Oc1ccnc(OCCn2nc3ccc(-c4ccc(OC(F)(F)F)cc4)cn3c2=O)n1 [compound 177, 2-(2-(4-isopropoxypyrimidin-2-yloxy)ethyl)-6-(4-(trifluoromethoxy)phenyl)-[1,2,4]triazolo[4,3-a]pyridin-3(2H)-one] | 25.8%

Row | Structure (SMILES) | inhibition at 1 µM
17 | O=c1n(CCOc2nccc(OCC(F)(F)F)n2)nc2ccc(-c3ccc(OC(F)(F)F)cc3)cn12 [compound 178, 2-(2-(4-(2,2,2-trifluoroethoxy)pyrimidin-2-yloxy)ethyl)-6-(4-(trifluoromethoxy)phenyl)-[1,2,4]triazolo[4,3-a]pyridin-3(2H)-one] | 14.2%
18 | O=c1n(CCOc2nccc(OCC3CC3)n2)nc2ccc(-c3ccc(OC(F)(F)F)cc3)cn12 [compound 179, 2-(2-(4-(cyclopropylmethoxy)pyrimidin-2-yloxy)ethyl)-6-(4-(trifluoromethoxy)phenyl)-[1,2,4]triazolo[4,3-a]pyridin-3(2H)-one] | 30.3%
19 | O=c1n(CCOc2ncc(C(F)(F)F)cn2)nc2ccc(-c3ccc(OC(F)(F)F)cc3)cn12 [compound 180, 6-(4-(trifluoromethoxy)phenyl)-2-(2-(5-(trifluoromethyl)pyrimidin-2-yloxy)ethyl)-[1,2,4]triazolo[4,3-a]pyridin-3(2H)-one] | 22.6%
20 | O=c1n(Cc2coc(C3CC3)n2)nc2ccc(-c3ccc(OC(F)(F)F)cc3)cn12 [compound 181, 2-((2-cyclopropyloxazol-4-yl)methyl)-6-(4-(trifluoromethoxy)phenyl)-[1,2,4]triazolo[4,3-a]pyridin-3(2H)-one] | 23.9%
21 | O=c1n(Cc2nnc(C3CC3)o2)nc2ccc(-c3ccc(Oc4ccc(F)cc4)cc3)cn12 [compound 182, 2-((5-cyclopropyl-1,3,4-oxadiazol-2-yl)methyl)-6-(4-(4-fluorophenoxy)phenyl)-[1,2,4]triazolo[4,3-a]pyridin-3(2H)-one] | 45.9%
22 | CC(C)(C)c1cnc(Cn2nc3ccc(-c4ccc(OC(F)(F)F)cc4)cn3c2=O)o1 [compound 183, 2-((5-tert-butyloxazol-2-yl)methyl)-6-(4-(trifluoromethoxy)phenyl)-[1,2,4]triazolo[4,3-a]pyridin-3(2H)-one] | 14.6%
23 | CC(C)(C)c1cnc(Cn2nc3ccc(-c4ccc(C(F)(F)F)cc4)cn3c2=O)o1 [compound 184, 2-((5-tert-butyloxazol-2-yl)methyl)-6-(4-(trifluoromethyl)phenyl)-[1,2,4]triazolo[4,3-a]pyridin-3(2H)-one] | 18.9%
24 | Cn1nc2ccc(-c3ccc(C(F)(F)F)cc3)cn2c1=O [compound 185, 2-methyl-6-(4-(trifluoromethyl)phenyl)-[1,2,4]triazolo[4,3-a]pyridin-3(2H)-one] | 10.1%
25 | O=c1n(CCN2CC[C@@H](Oc3ccc(F)cc3)C2)nc2ccc(-c3ccc(OC(F)(F)F)cc3)cn12 [compound 186, (R)-2-(2-(3-(4-fluorophenoxy)pyrrolidin-1-yl)ethyl)-6-(4-(trifluoromethoxy)phenyl)-[1,2,4]triazolo[4,3-a]pyridin-3(2H)-one] | 37.3%
26 | Cc1c(-c2ccc(OC(F)(F)F)cc2)ccc2n[nH]c(=O)n12 [compound 187, 5-methyl-6-(4-(trifluoromethoxy)phenyl)-[1,2,4]triazolo[4,3-a]pyridin-3(2H)-one] | 29.8%
27 | Cc1noc(Cn2nc3ccc(-c4ccc(OC(F)(F)F)cc4)c(C)n3c2=O)n1 [compound 188, 5-methyl-2-((3-methyl-1,2,4-oxadiazol-5-yl)methyl)-6-(4-(trifluoromethoxy)phenyl)-[1,2,4]triazolo[4,3-a]pyridin-3(2H)-one] | 17.3%
28 | O=c1n(CC(F)(F)F)nc2ccc(-c3ccc(OC(F)(F)F)cc3)cn12 [compound 189, 2-(2,2,2-trifluoroethyl)-6-(4-(trifluoromethoxy)phenyl)-[1,2,4]triazolo[4,3-a]pyridin-3(2H)-one] | 15.3%
29 | CC(C)n1nc2ccc(-c3ccc(OC(F)(F)F)cc3)cn2c1=O [compound 190, 2-isopropyl-6-(4-(trifluoromethoxy)phenyl)-[1,2,4]triazolo[4,3-a]pyridin-3(2H)-one] | 17.6%
30 | Cc1coc(Cn2nc3ccc(-c4ccc(OC(F)(F)F)cc4)cn3c2=O)n1 [compound 191, 2-((4-methyloxazol-2-yl)methyl)-6-(4-(trifluoromethoxy)phenyl)-[1,2,4]triazolo[4,3-a]pyridin-3(2H)-one] | 28.9%
31 | Cc1coc(Cn2nc3ccc(-c4ccc(C(F)(F)F)cc4)cn3c2=O)n1 [compound 192, 2-((4-methyloxazol-2-yl)methyl)-6-(4-(trifluoromethyl)phenyl)-[1,2,4]triazolo[4,3-a]pyridin-3(2H)-one] | 34.4%
32 | O=c1n(Cc2nc(C3CC3)co2)nc2ccc(-c3ccc(OC(F)(F)F)cc3)cn12 [compound 193, 2-((4-cyclopropyloxazol-2-yl)methyl)-6-(4-(trifluoromethoxy)phenyl)-[1,2,4]triazolo[4,3-a]pyridin-3(2H)-one] | 33.8%
